In brackets after ≈: the same amount, converted by molar mass.
Assays:
[1] = tested on: W2 (chloroquin resistant) strain of P. falciparum; assay: in vitro antiplasmodial activity, W2 clone; assay type: cell-based, Plasmodium falciparum; settings: for IC50: Plasmodium falciparum, W2, 72 h, read-out: W2-clone IC50; for antiplasmodial activity (in words): W2 strain
[2] = tested on: lettuce (Lactuca sativa cv. L. Iceberg); assay: initial phytotoxicity bioassay, lettuce; assay type: in vivo; settings: for Phytotoxic activity ranking: visual scale 0 to 5, 0 = no effect, 5 = no growth; for growth inhibition (in words): 1 mg/mL (highest concentration)
[3] = tested on: bentgrass (Agrostis stolonifera); assay: initial phytotoxicity bioassay, bentgrass; assay type: in vivo; settings: for Phytotoxic activity ranking: visual scale 0 to 5, 0 = no effect, 5 = no growth; for growth inhibition (in words): 1 mg/mL (highest concentration)
[4] = tested on: D6 (chloroquin sensitive) strain of P. falciparum; assay: in vitro antiplasmodial activity, D6 clone; assay type: cell-based, Plasmodium falciparum; settings: for IC50: Plasmodium falciparum, D6, 72 h, read-out: D6-clone IC50; for antiplasmodial activity (in words): D6 strain
[5] = tested on: duckweed (Lemna pausicostata); assay: duckweed growth bioassay; assay type: in vivo; settings: 168 h, read-out: I50, growth of duckweed
[6] = cytotoxicity to SK-MEL cells; assay type: cell-based; settings: human
cytotoxicity to KB cells = assay type: cell-based; settings: human
[7] = cytotoxicity to BT-549 cells; assay type: cell-based; settings: human
[8] = cytotoxicity to SK-OV-3 cells; assay type: cell-based; settings: human
[9] = cytotoxicity to LLC-PK11 cells; assay type: cell-based; settings: pig
[10] = cytotoxicity to Vero cells; assay type: cell-based; settings: African green monkey, Vero cells (kidney fibroblast)
wheat coleoptile = settings: cited from earlier work
[11] = tested on: a number of plant species; settings: cited from earlier work
[12] = KB cells (oral epidermal carcinoma)
[13] = BT-549 cells (breast ductal carcinoma)
[14] = SK-OV-3 cells (ovary carcinoma)
[15] = LLC-PK11 cells (kidney epithelial)

`C[C@@]12C[C@@H](O)C[C@]3(C)C4=CC(=O)OC[C@]45O[C@@H]5[C@@H](OC1=O)C23` (some centres unmarked) [Compound 4] showed an IC50 [1] of 0.82 µg/mL (≈ 2.68 µM), a Phytotoxic activity ranking ([2]; 0.001 mg/mL) of 0 and a Phytotoxic activity ranking ([2]; 0.01 mg/mL) of 3. The Phytotoxic activity ranking ([2]; 0.1 mg/mL) was 5, the Phytotoxic activity ranking ([2]; 1.0 mg/mL) was 5 and the Phytotoxic activity ranking ([3]; 0.001 mg/mL) was 0. It also gave a Phytotoxic activity ranking ([3]; 0.01 mg/mL) of 2, a Phytotoxic activity ranking ([3]; 0.1 mg/mL) of 5 and a Phytotoxic activity ranking ([3]; 1.0 mg/mL) of 5.

In the case of `C[C@@]12C=C[C@H](O)[C@]3(C)C(=O)O[C@H](C=C4COC(=O)C=C41)C23` (some centres unmarked) [Compound 6], the IC50 [4] is reported as 0.043 µg/mL (≈ 0.149 µM), the Phytotoxic activity ranking ([2]; 0.001 mg/mL) is reported as 0 and the Phytotoxic activity ranking ([2]; 0.01 mg/mL) is reported as 5. The Phytotoxic activity ranking ([2]; 0.1 mg/mL) was 5, the Phytotoxic activity ranking ([2]; 1.0 mg/mL) was 5 and the Phytotoxic activity ranking ([3]; 0.001 mg/mL) was 0. It also gave a Phytotoxic activity ranking ([3]; 0.01 mg/mL) of 4, a Phytotoxic activity ranking ([3]; 0.1 mg/mL) of 5 and a Phytotoxic activity ranking ([3]; 1.0 mg/mL) of 5. For the same compound, the IC50 [5] was 0.39 to 0.95 µM.

For `C[C@]12CC[C@@H](O)[C@]3(C)C(=O)O[C@@H](C13)[C@H]1O[C@]13COC(=O)C=C32` (some centres unmarked) [Compound 3], the “antiplasmodial activity (in words)” value [4] was “inactive”, the IC50 [4] was over 4.76 µg/mL and the IC50 [1] was over 4.76 µg/mL. For the same compound, the “antiplasmodial activity (in words)” value [1] was “inactive”, the IC50 at 48 h [6] was over 10 µg/mL and the IC50 at 48 h (cytotoxicity to KB cells) was over 10 µg/mL. For the same compound, the IC50 at 48 h [7] was over 10 µg/mL, the IC50 at 48 h [8] was over 10 µg/mL and the IC50 at 48 h [9] was over 10 µg/mL. The Phytotoxic activity ranking ([2]; 0.001 mg/mL) was 0, the Phytotoxic activity ranking ([2]; 0.01 mg/mL) was 0 and the Phytotoxic activity ranking ([2]; 0.1 mg/mL) was 4. The “growth inhibition (in words)” value [2] was “total inhibition of growth”, the Phytotoxic activity ranking ([2]; 1.0 mg/mL) was 5 and the Phytotoxic activity ranking ([3]; 0.001 mg/mL) was 0. The Phytotoxic activity ranking ([3]; 0.01 mg/mL) was 0, the Phytotoxic activity ranking ([3]; 0.1 mg/mL) was 4 and the “growth inhibition (in words)” value [3] was “total inhibition of growth”. The Phytotoxic activity ranking ([3]; 1.0 mg/mL) was 5.

With `C=C1C(O)CC2[C@](C)(CCC[C@]2(C)C(=O)O)C1CC(=O)O` (some centres unmarked) [Compound 13] the “antiplasmodial activity (in words)” value [4] was “inactive”, the IC50 [4] was over 4.76 µg/mL and the IC50 [1] was over 4.76 µg/mL. For the same compound, the “antiplasmodial activity (in words)” value [1] was “inactive”, the IC50 at 48 h [10] was over 4.76 µg/mL and the IC50 at 48 h ([6]; SK-MEL cells (malignant melanoma)) was over 10 µg/mL. The IC50 at 48 h (cytotoxicity to KB cells; [12]) was over 10 µg/mL, the IC50 at 48 h [7, 13] was over 10 µg/mL and the IC50 at 48 h [8, 14] was over 10 µg/mL. It also gave an IC50 at 48 h [9, 15] of over 10 µg/mL, a Phytotoxic activity ranking ([2]; 0.001 mg/mL) of 0 and a Phytotoxic activity ranking ([2]; 0.01 mg/mL) of 0. The Phytotoxic activity ranking ([2]; 0.1 mg/mL) was 0, the “growth inhibition (in words)” value [2] was “inactive” and the Phytotoxic activity ranking ([2]; 1.0 mg/mL) was 1. For the same compound, the Phytotoxic activity ranking ([3]; 0.001 mg/mL) was 0, the Phytotoxic activity ranking ([3]; 0.01 mg/mL) was 0 and the Phytotoxic activity ranking ([3]; 0.1 mg/mL) was 0. The “growth inhibition (in words)” value [3] was “inactive” and the Phytotoxic activity ranking ([3]; 1.0 mg/mL) was 0.

Work on `C[C@]12CCC[C@](C)(C(=O)O)[C@@H]1C=C[C@]1(O)COC(=O)C[C@H]21` [Compound 12, oidiolactone-E] yielded a Phytotoxic activity ranking ([2]; 0.001 mg/mL) of 0, a Phytotoxic activity ranking ([2]; 0.01 mg/mL) of 2 and a Phytotoxic activity ranking ([2]; 0.1 mg/mL) of 4. The Phytotoxic activity ranking ([2]; 1.0 mg/mL) was 5, the Phytotoxic activity ranking ([3]; 0.001 mg/mL) was 0 and the Phytotoxic activity ranking ([3]; 0.01 mg/mL) was 1. The Phytotoxic activity ranking ([3]; 0.1 mg/mL) was 4 and the Phytotoxic activity ranking ([3]; 1.0 mg/mL) was 5.

Work on `C[C@]12C=CC[C@]3(C)C(=O)O[C@@H](C13)[C@H]1O[C@]13COC(=O)C=C32` (some centres unmarked) [Compound 2] yielded an IC50 at 48 h (cytotoxicity to KB cells) of over 10 µg/mL, an IC50 at 48 h [8] of over 10 µg/mL and a Phytotoxic activity ranking ([2]; 0.001 mg/mL) of 0. It also gave a Phytotoxic activity ranking ([2]; 0.01 mg/mL) of 3, a Phytotoxic activity ranking ([2]; 0.1 mg/mL) of 5 and a Phytotoxic activity ranking ([2]; 1.0 mg/mL) of 5. It also gave a Phytotoxic activity ranking ([3]; 0.001 mg/mL) of 1, a Phytotoxic activity ranking ([3]; 0.01 mg/mL) of 4 and a Phytotoxic activity ranking ([3]; 0.1 mg/mL) of 5. For the same compound, the Phytotoxic activity ranking ([3]; 1.0 mg/mL) was 5 and the IC50 [5] was 0.39 to 0.95 µM.

For `C[C@@]12CC[C@@H](O)[C@]3(C)C(=O)O[C@H](C=C4COC(=O)C=C41)C23` (some centres unmarked) [Compound 8], the “antiplasmodial activity (in words)” value [4] was “inactive”, the “antiplasmodial activity (in words)” value [1] was “inactive” and the IC50 at 48 h [6] was over 10 µg/mL. The IC50 at 48 h (cytotoxicity to KB cells) was over 10 µg/mL, the IC50 at 48 h [7] was over 10 µg/mL and the IC50 at 48 h [8] was over 10 µg/mL. The IC50 at 48 h [9] was over 10 µg/mL, the Phytotoxic activity ranking ([2]; 0.001 mg/mL) was 0 and the Phytotoxic activity ranking ([2]; 0.01 mg/mL) was 0. For the same compound, the Phytotoxic activity ranking ([2]; 0.1 mg/mL) was 2, the “growth inhibition (in words)” value [2] was “total inhibition of growth” and the Phytotoxic activity ranking ([2]; 1.0 mg/mL) was 5. For the same compound, the Phytotoxic activity ranking ([3]; 0.001 mg/mL) was 0, the Phytotoxic activity ranking ([3]; 0.01 mg/mL) was 0 and the Phytotoxic activity ranking ([3]; 0.1 mg/mL) was 3. For the same compound, the “growth inhibition (in words)” value [3] was “total inhibition of growth” and the Phytotoxic activity ranking ([3]; 1.0 mg/mL) was 5.

For `C[C@]12C=C[C@H](O)[C@]3(C)C(=O)O[C@@H](C13)[C@H]1O[C@]13COC(=O)C=C32` (some centres unmarked) [Compound 1], the Phytotoxic activity ranking ([2]; 0.01 mg/mL) was 5, the Phytotoxic activity ranking ([2]; 0.1 mg/mL) was 5 and the Phytotoxic activity ranking ([2]; 1.0 mg/mL) was 5. The Phytotoxic activity ranking ([3]; 0.01 mg/mL) was 4, the Phytotoxic activity ranking ([3]; 0.1 mg/mL) was 5 and the Phytotoxic activity ranking ([3]; 1.0 mg/mL) was 5.

For `CCN(CC)CCCC(C)Nc1ccnc2cc(Cl)ccc12` (centres unmarked) [chloroquine, reference compound], the IC50 [1] was 0.1 µg/mL (≈ 0.313 µM).

Work on `C[C@@]12C=CC[C@]3(C)C(=O)O[C@H](C=C4COC(=O)C=C41)C23` (some centres unmarked) [Compound 7] yielded an IC50 [4] of 0.17 µg/mL (≈ 0.624 µM), a Phytotoxic activity ranking ([2]; 0.001 mg/mL) of 0 and a Phytotoxic activity ranking ([2]; 0.01 mg/mL) of 1. It also gave a Phytotoxic activity ranking ([2]; 0.1 mg/mL) of 5, a Phytotoxic activity ranking ([2]; 1.0 mg/mL) of 5 and a Phytotoxic activity ranking ([3]; 0.001 mg/mL) of 0. The Phytotoxic activity ranking ([3]; 0.1 mg/mL) was 5, the Phytotoxic activity ranking ([3]; 1.0 mg/mL) was 5 and the IC50 [5] was 0.39 to 0.95 µM.

`C[C@@]12C[C@@H](O)C[C@]3(C)C4=CC(=O)OCC4=C[C@@H](OC1=O)C23` (some centres unmarked) [Compound 9] showed an IC50 [4] of 0.097 µg/mL (≈ 0.334 µM), an IC50 [1] of 0.084 µg/mL (≈ 0.289 µM) and a Phytotoxic activity ranking ([2]; 0.01 mg/mL) of 2. The Phytotoxic activity ranking ([2]; 0.1 mg/mL) was 5, the Phytotoxic activity ranking ([2]; 1.0 mg/mL) was 5 and the Phytotoxic activity ranking ([3]; 0.001 mg/mL) was 2. For the same compound, the Phytotoxic activity ranking ([3]; 0.01 mg/mL) was 3, the Phytotoxic activity ranking ([3]; 0.1 mg/mL) was 5 and the Phytotoxic activity ranking ([3]; 1.0 mg/mL) was 5. The “inhibition of wheat coleoptile elongation (in words)” value (wheat coleoptile) was “weak inhibitor”.

With `C[C@@]12CCC[C@]3(C)C4=CC(=O)OCC4=C[C@@H](OC1=O)C23` (some centres unmarked) [Compound 11] the Phytotoxic activity ranking ([2]; 0.001 mg/mL) was 0, the Phytotoxic activity ranking ([2]; 0.01 mg/mL) was 2 and the Phytotoxic activity ranking ([2]; 0.1 mg/mL) was 5. For the same compound, the Phytotoxic activity ranking ([2]; 1.0 mg/mL) was 5, the Phytotoxic activity ranking ([3]; 0.001 mg/mL) was 0 and the Phytotoxic activity ranking ([3]; 0.01 mg/mL) was 3. The Phytotoxic activity ranking ([3]; 0.1 mg/mL) was 5, the Phytotoxic activity ranking ([3]; 1.0 mg/mL) was 5 and the IC50 [5] was 0.39 to 0.95 µM. The “phytotoxicity (in words)” value [11] was “potent phytotoxin”.

In the case of `C[C@@]12CC[C@@H](O)[C@]3(C)C4=CC(=O)OC[C@]45O[C@@H]5[C@@H](OC1=O)C23` (some centres unmarked) [Compound 5], the “antiplasmodial activity (in words)” value [4] is reported as “inactive”, the “antiplasmodial activity (in words)” value [1] is reported as “inactive” and the IC50 at 48 h (cytotoxicity to KB cells; [12]) is reported as over 10 µg/mL. It also gave an IC50 at 48 h [7, 13] of over 10 µg/mL, an IC50 at 48 h [8, 14] of over 10 µg/mL and an IC50 at 48 h [9, 15] of over 10 µg/mL. It also gave a Phytotoxic activity ranking ([2]; 0.001 mg/mL) of 1, a Phytotoxic activity ranking ([2]; 0.01 mg/mL) of 4 and a Phytotoxic activity ranking ([2]; 0.1 mg/mL) of 5. It also gave a Phytotoxic activity ranking ([2]; 1.0 mg/mL) of 5, a Phytotoxic activity ranking ([3]; 0.001 mg/mL) of 0 and a Phytotoxic activity ranking ([3]; 0.01 mg/mL) of 4. It also gave a Phytotoxic activity ranking ([3]; 0.1 mg/mL) of 5 and a Phytotoxic activity ranking ([3]; 1.0 mg/mL) of 5.

With `C[C@@]12CC[C@@H](O)[C@]3(C)C4=CC(=O)OCC4=C[C@@H](OC1=O)C23` (some centres unmarked) [Compound 10] the Phytotoxic activity ranking ([2]; 0.001 mg/mL) was 0, the Phytotoxic activity ranking ([2]; 0.01 mg/mL) was 1 and the Phytotoxic activity ranking ([2]; 0.1 mg/mL) was 5. It also gave a Phytotoxic activity ranking ([2]; 1.0 mg/mL) of 5, a Phytotoxic activity ranking ([3]; 0.001 mg/mL) of 0 and a Phytotoxic activity ranking ([3]; 0.01 mg/mL) of 1. The Phytotoxic activity ranking ([3]; 0.1 mg/mL) was 5 and the Phytotoxic activity ranking ([3]; 1.0 mg/mL) was 5.
